Laboratory results: US8969578B2, “Inhibitors of STAT3” (University of Central Florida Research Foundation, Inc., priority 2008, dated 2015)

Tested on: NIH3T3/vSrc cells
Experiment: WST-1 cell viability/proliferation assay, NIH3T3/vSrc
Format: cell-based, mouse
Method: Initial in vitro whole-cell experiments were conducted against normal mouse NIH-3T3 fibroblasts and v-src-transformed counterparts (NIH-3T3/v-src) that harbor aberrant STAT3. Inhibitor effects upon cell viability, proliferation, and cytotoxicity were assessed through WST-1, a cell proliferation reagent that measures the metabolic activity of viable cells. […] It is assumed that the predominantly hydrophobic nature of these compounds facilitated successful permeation of the cell membrane despite the phosphate.

## CC(C)C[C@H](NC(=O)[C@H](Cc1ccc(OP(=O)(O)O)cc1)NC(=O)c1ccc(C#N)cc1)C(=O)O [ISS610]
  inhibitor concentration required for suppression in whole cells: millimolar concentrations
